The subject of data set [1] is reporter viruses pseudotyped with HIV-1JR-FL envelope. Format: cell-based. Particulars: for CI50 / CI90: envelope JRFL; for IC90 / IC50: 1st inhibitor alone, HIV-1 envelope JRFL. More on the design: CI90: unit not given beside the values. From the text: HIV-1 pseudoparticles (HIV-1pp) are generated in 293T cells by transient coexpression of an HIV-1-based NL4/3luc+env− plasmid and a construct encoding HIV-1JRFL Env. The NL4/3luc+env− plasmid was obtained from the NIH AIDS Research and Reference Reagent Program (Cat. No. 3418), and the HIV-1JRFL Env was inserted into the pcDNA3.1 vector (Invitrogen). Briefly, 293T cells are calcium phosphate transfected with a 1:1 ratio of NL4/3luc+env− reporter vector and Env expression vector in Hepes buffer (Profection Mammalian Transfection Kit, Promega). After 16 h the transfection medium is aspirated and fresh cell culture medium (DMEM with 10% FBS, glutamine and antibiotics) is added and the incubation is continued at 37° C. for an additional 24-32 h. Cell culture supernatants are collected 48 h post-transfection and centrifuged at 1,400 rpm for 10 min to pellet cell debris. The viral supernatant is brought to a final concentration of 5% sucrose and stored aliquoted at −80° C.
U87-CD4-CCR5 cells were obtained from the NIH AIDS Research and Reference Program (Cat. No. 4035). These cells are maintained in culture medium (DMEM with 10% FBS, antibiotics and glutamine) containing 0.3 mg/ml G418 and 0.5 mg/ml puromycin. Cells are grown in T175-cm^2 flasks at 37° C. and diluted 1:5 every 3-4 days. For assay plate preparation, cells are trypsinized and seeded into wells of 96-well tissue-culture treated flat bottom opaque polystyrene plates (Perkin Elmer, Boston, Mass.) at a density of 3×10^3 cells/well. Plates are incubated for no more than 4 h at 37° C. in a humidified 5% CO2 incubator prior to their use in the HIV-1 pp susceptibility assay.
Fifty μl of diluted compound at 4× the desired final concentration are added per well. For compounds solubilized in DMSO, the 4× stock will contain 2% DMSO (such that the final DMSO concentration in the assay is always 0.5% for small molecules). Control wells receiving no compound are included on each plate. In addition, an AZT inhibition control is included in each assay. Compounds are tested individually and at a fixed mass or molar ratio over a broad range of concentrations.
A vial of frozen, aliquoted HIV-1pp is thawed in a 37° C. waterbath and then placed on wet ice. Virus is diluted in cold cell culture medium as necessary to achieve the desired final virus concentration in the HIV-1pp assay (about 10,000 relative light units (rlu) per well). 50 μl of diluted virus are added per well, bringing the final well volume to 200 μl. A no-virus control (minimum or background luminescence) and a no-compound control (maximum luminescence) are included on each plate. The plates are incubated for 72 h at 37° C. in a humidified 5% CO2 incubator followed by processing for luciferase signal (see below).
Assay medium is aspirated and 200 μl of PBS are added to each well. […] Assay plates are then frozen for at least 2 h at −80° C. followed by thawing at room temperature and vigorous mixing with an electronic pipettor. 25 μl from each well are transferred to an opaque 96-well plate (Costar #3922). Four replicates are pooled into the same well on the opaque plate. 100 μl of freshly thawed and reconstituted luciferase substrate (Luciferase Assay System, Promega—Cat. No. E1501) are added to each well of the plate with the electronic pipettor, and luminescence is detected immediately on a Dynex MLX plate reader set to medium gain.
The percent inhibition is derived as follows: [1−(luciferase activity in the presence of drug/luciferase activity in the absence of drug)]×100. IC50 values are determined by fitting the inhibition data with a non-linear, four-parameter, variable slope equation (GraphPad Prism, ver. 4.02; GraphPad Software, San Diego, Calif.). Upper and lower inhibition values are constrained to 100% and 0%, respectively for curve fitting. […]

For another data set, the target named is T1, CCR5 (Homo sapiens, UniProt P51681).
T1 construct: host or cells: CEM.NKR-CCR5 (transduced human T cell leukemia line)
Briefly: Competition binding: inhibition of PRO 140-PE binding to CEM.NKR-CCR5 cells (flow cytometry). The method, then:
Inhibition was assessed on the basis of both MFI (A) and percent cells gated (B).
Azide was added to block CCR5 internalization during the assay.
A general note: In flow cytometry, cells or beads pass a laser one at a time.

The nature of data set [2]: Phase 1b clinical trial: pharmacokinetics (serum PRO 140 by ELISA). Particulars: non-compartmental analysis, HIV-infected subjects.
The subject of the next data set is HIV-1JR-CSF. Briefly: hu-PBL SCID mouse model infected with HIV-1JR-CSF (FIG. 5). Format: in vivo. Particulars: multiple doses after steady state viral levels, FIG. 5 legend. The method, then:
SCID mice were reconstituted with normal human peripheral blood mononuclear cells and infected 2 weeks later with HIV-1JR-CSF. Multiple doses of PRO 140 were administered following attainment of steady state viral levels. Plasma viral loads pre- and post-injection are indicated.

Where [3] appears, read: labelled 1st inhibitor with 2nd inhibitor PRO 140, equimolar (1:10 PRO 140 to zidovudine or nevirapine).

Here are results for four molecules from patent US20090074766A1, “Methods of inhibiting HIV-2 infection” (priority 2007, published 2009).

Like-named read-outs stand apart in the source and are kept apart here.

T1 sequence (P51681 whole entry): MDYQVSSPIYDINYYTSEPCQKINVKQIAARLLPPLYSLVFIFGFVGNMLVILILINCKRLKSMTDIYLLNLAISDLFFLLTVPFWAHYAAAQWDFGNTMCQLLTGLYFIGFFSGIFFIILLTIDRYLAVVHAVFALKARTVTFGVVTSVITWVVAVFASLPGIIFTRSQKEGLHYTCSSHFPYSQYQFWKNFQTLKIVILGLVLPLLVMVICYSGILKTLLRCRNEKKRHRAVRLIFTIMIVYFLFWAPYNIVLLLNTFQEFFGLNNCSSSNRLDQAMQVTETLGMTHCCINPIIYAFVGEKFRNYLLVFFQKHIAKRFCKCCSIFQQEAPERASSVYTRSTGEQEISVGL

In the case of `COc1ccnc2[nH]cc(C(=O)C(=O)N3CCN(C(=O)c4ccccc4)C[C@H]3C)c12` [BMS-378806, (R)-N-(benzoyl)-3-methyl-N′-[(4-methoxy-7-azaindol-3-yl)-oxoacetyl]-piperazine], in data set [1] (setting [3]), the CI50 is on record as 1.2 ± 0.38 and the CI90 was 0.74 ± 0.23.
For orientation: IC90 means the concentration needed for an effect of 90%. Regarding `COC[C@@H](c1ccc(C(F)(F)F)cc1)N1CCN(C2(C)CCN(C(=O)c3c(C)ncnc3C)CC2)C[C@@H]1C` [SCH-D, 1-[(4,6-dimethyl-5-pyrimidinyl)carbonyl]-4-[4-[2-methoxy-1(R)-4-(trifluoromethyl)phenyl]ethyl-3(S)-methyl-1-piperazinyl]-4-methylpiperidine], in data set [1] (read-out: IC90), the IC90 was found to be 44 nM. The “percent of cells gated for positive binding of PRO 140-PE” value at CCR5 (result in words (FIG. 12B)) is “little impact”.
For orientation: IC50 means the concentration that inhibits the measured activity by half. On to `Cc1nnc(C(C)C)n1C1CC2CCC(C1)N2CC[C@H](NC(=O)C1CCC(F)(F)CC1)c1ccccc1` (some centres unmarked) [UK-427,857], for which, in data set [1], half-maximal inhibition (IC50) required 7.4 nM and the concentration for an effect of 90% (IC90) was 46 nM. This molecule also showed a CI90 in data set [1] (labelled 1st inhibitor with 2nd inhibitor SCH-D) of 1.2 ± 0.15.

B1: PRO 140: humanized IgG4,κ anti-CCR5 monoclonal antibody, humanized version of murine mAb PA14 (antibody, chains of the INN, looked up, V domains shown)
VH: EVQLVESGGGLVKPGGSLRLSCAASGYTFSNYWIGWVRQAPGKGLEWIGDIYPGGNYIRNNEKFKDKTTLSADTSKNTAYLQMNSLKTEDTAVYYCGSSFGSNYVFAWFTYWGQGTLVTVSS
VL: DIVMTQSPLSLPVTPGEPASISCRSSQRLLSSYGHTYLHWYLQKPGQSPQLLIYEVSNRFSGVPDRFSGSGSGTDFTLKISRVEAEDVGVYYCSQSTHVPLTFGQGTKVEIK
A word on the EC90: it is the concentration at which the effect reaches the 90% level. Regarding B1, in data set [2], the Terminal half life entry is listed as “approximately 4 d”. For the same molecule, the IC50 in data set [1] (read-out: IC50) stood at 2.2 nM. Besides, the concentration for an effect of 90% (IC90) in data set [1] (read-out: IC90) is 28 nM. In addition, in data set [1] (setting [3]), the CI50 stood at 1.2 ± 0.32 and the CI90 turned out to be 0.90 ± 0.15. In the data set with CCR5 (based on percent cells gated, 5 nM PRO 140-PE), this molecule returned an EC90 of 17 nM. Also, the “control of viral replication in HIV-1-infected mice” value in the data set on HIV-1JR-CSF is “provides prolonged control of viral replication”.
